Values after ≈ are worked out from the molar mass of the structure shown.
Assays:
[1] = Hygroscopicity evaluation by dynamic vapor sorption (DVS); type: physicochemical
Procedure: Dynamic vapor sorption (DVS) curves are acquired on a DVS IntrInsic in Surface Measurement Systems (SMS). The relative humidity at 25° C. is corrected with the deliquescence points of LiCI, Mg (NO3)2, and KCI.
Starting at 0% RH, the test acquired the percentage change in mass of the sample when humidity changed (0% RH to 95% RH to 0% RH) at a constant temperature of 25° C.

[2] = Solid state stability (XRPD and HPLC after uncovered storage); conditions: for Relative to starting (%): HPLC purity; for Purity (area %): HPLC
Procedure: XRPD patterns are acquired on an X-ray powder diffraction analyzer manufactured by PANalytacal, and the scanning parameters are shown in Table A-1 below.
The free acid crystal form A and the crystal form A of the tromethamine salt were left to stand uncovered for 1/4 weeks at 25° C./60% RH and 40° C./75% RH, respectively, and then the physical and chemical stability of the samples was tested by XRPD and HPLC.

[3] = Dynamic solubility experiment at 37° C. in water, SGF, FaSSIF and FeSSIF; conditions: for solubility at 1 h / solubility at 2 h / solubility at 4 h / solubility at 24 h: 37 °C, thermodynamic from solid; for Crystal form change: XRPD of centrifuged solid; for pH: pH value of filtrate;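 on all read-outs here: at each sampling time, filtrate assayed by HPLC for concentration and for pH, centrifuged solid checked by XRPD, media SGF at pH 1.8, FaSSIF 6.5, FeSSIF 5.0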
Procedure: In the test, the purity, dynamic solubility and stability are tested by an Agilent 1260 high-performance liquid chromatograph.
The solid at a feeding concentration of 10 mg/mL (40 mg of solid in 4 mL of solvent, calculated as free acid) was rotationally mixed at 37° C., and the solubility of each sample in four systems of water, SGF, FaSSIF, and FeSSIF was determined at different time points (1 h, 2 h, 4 h, and 24 h). After sampling at each time point, the sample was centrifuged (at 10000 rpm) and filtered (through a 0.45 μm PTFE filter head), the filtrate was determined for HPLC concentration and pH value, and the centrifuged solid samples were tested for XRPD.
200.3 mg of NaCl and 105.0 mg of Triton X-100 were weighed out and added to a 50-mL volumetric flask, purified water was added, and the mixture was completely dissolved. 136 μL of concentrated hydrochloric acid (12 M) was added, and the pH was adjusted to 1.8 with 1 M hydrochloric acid or 1 M NaOH solution. Purified water was added, and the mixed solution was brought to volume.
0.34 g of anhydrous NaH2PO4, 0.44 g of NaOH, and 0.62 g of NaCl were weighed out and added to a 50-mL volumetric flask. Purified water was added, the mixture was completely dissolved, and the pH was adjusted to 6.5 with 1 M hydrochloric acid or 1 M NaOH solution. Purified water was added, and the mixed solution was brought to volume. 0.11 g of SIF powder was then weighed out, and the mixed solution was completely dissolved.
0.82 mL of glacial acetic acid, 0.40 g of NaOH, and 1.19 g of NaCl were added to a 50-mL volumetric flask. About 48 mL of purified water was added, the mixture was completely dissolved, and the pH was adjusted to 5.0 with 1 M hydrochloric acid or 1 M NaOH solution. Purified water was added, and the mixed solution was brought to volume. 0.56 g of SIF powder was then weighed out, and the mixed solution was completely dissolved.

[4] = Crystal form conversion on drying at room temperature; type: physicochemical
Procedure: The free acid crystal form A was dissolved in MIBK (methyl isobutyl ketone), and then the mixture was subjected to gas-liquid diffusion in an n-pentane atmosphere to obtain free acid crystal form B (XRPD pattern thereof shown in FIG. 5).

[5] = 25° C./60% RH/uncovered, 1 week
[6] = 25° C./60% RH/uncovered, 4 weeks
[7] = 40° C./75% RH/uncovered, 1 week
[8] = 40° C./75% RH/uncovered, 4 weeks
[9] = SGF, pH 1.8, simulated gastric fluid

C[C@H](NC(=O)c1c(C(F)F)nn(C)c1Oc1cccc(C(C)(F)F)c1)c1ccc(C(=O)O)cc1 [Free acid crystal form A, (S)-4-(1-(5-(3-(1,1-difluoroethyl)phenoxy)-3-(difluoromethyl)-1-methyl-1H-pyrazole-4-carboxamide)ethyl)benzoic acid]
hygroscopicity (in words) ([1]; DVS, 25° C./80% RH): almost no hygroscopicity
vapor sorption ([1]; DVS, 25° C./80% RH): 0.07%
crystal form after DVS test ([1]; XRPD before and after DVS, 0% RH to 95% RH to 0% RH, 25° C.): unchanged
hygroscopicity (summary statement) ([1]; beneficial effects summary): relatively low hygroscopicity
physicochemical stability (summary statement) [2]: good physicochemical stability
HPLC purity change after placement (in words) ([2]; 25° C./60% RH and 40° C./75% RH, uncovered, 1/4 weeks): not significantly changed
crystal form change after placement (in words) ([2]; 25° C./60% RH and 40° C./75% RH, uncovered, 1/4 weeks, XRPD): not changed
Relative to starting (%) [2, 5]: 99.81%
Relative to starting (%) [2, 6]: 99.83%
Relative to starting (%) [2, 7]: 99.79%
Relative to starting (%) [2, 8]: 99.77%
Purity (area %) [2, 5]: 94.14 area %
Purity (area %) [2, 6]: 94.19 area %
Purity (area %) [2, 7]: 94.15 area %
Purity (area %) [2, 8]: 94.13 area %
Purity (area %) ([2]; Starting): 94.35 area %
solubility at 1 h ([3]; FaSSIF, pH 6.5, fassif): 1960 µg/mL (≈ 4090 µM)
solubility at 2 h ([3]; FaSSIF, pH 6.5, fassif): 1830 µg/mL (≈ 3820 µM)
solubility at 4 h ([3]; FaSSIF, pH 6.5, fassif): 1860 µg/mL (≈ 3880 µM)
solubility at 24 h ([3]; FaSSIF, pH 6.5, fassif): 1590 µg/mL (≈ 3320 µM)
solubility at 1 h ([3]; FeSSIF, pH 5, fessif): 210 µg/mL (≈ 438 µM)
solubility at 2 h ([3]; FeSSIF, pH 5, fessif): 220 µg/mL (≈ 459 µM)
solubility at 4 h ([3]; FeSSIF, pH 5, fessif): 220 µg/mL (≈ 459 µM)
solubility at 24 h ([3]; FeSSIF, pH 5, fessif): 210 µg/mL (≈ 438 µM)
solubility at 1 h [3, 9]: 40 µg/mL (≈ 83.4 µM)
solubility at 2 h [3, 9]: 40 µg/mL (≈ 83.4 µM)
solubility at 4 h [3, 9]: 50 µg/mL (≈ 104 µM)
solubility at 24 h [3, 9]: 40 µg/mL (≈ 83.4 µM)
Crystal form change ([3]; FaSSIF, 37° C., 1 h): No
Crystal form change ([3]; FaSSIF, 37° C., 2 h): No
Crystal form change ([3]; FaSSIF, 37° C., 4 h): No
Crystal form change ([3]; FaSSIF, 37° C., 24 h): No
Crystal form change ([3]; FeSSIF, 37° C., 1 h, Yes^a: converted to the free acid crystal form A): No
Crystal form change ([3]; FeSSIF, 37° C., 2 h, Yes^a: converted to the free acid crystal form A): No
Crystal form change ([3]; FeSSIF, 37° C., 4 h, Yes^a: converted to the free acid crystal form A): No
Crystal form change ([3]; FeSSIF, 37° C., 24 h, Yes^a: converted to the free acid crystal form A): No
Crystal form change ([3]; H2O, 37° C., 1 h): No
Crystal form change ([3]; H2O, 37° C., 2 h): No
Crystal form change ([3]; H2O, 37° C., 4 h): No
Crystal form change ([3]; H2O, 37° C., 24 h): No
Crystal form change ([3]; SGF, 37° C., 1 h, Yes^a: converted to the free acid crystal form A): No
Crystal form change ([3]; SGF, 37° C., 2 h, Yes^a: converted to the free acid crystal form A): No
Crystal form change ([3]; SGF, 37° C., 4 h, Yes^a: converted to the free acid crystal form A): No
Crystal form change ([3]; SGF, 37° C., 24 h, Yes^a: converted to the free acid crystal form A): No
pH ([3]; FaSSIF, 37° C., 1 h): 6.1
pH ([3]; FaSSIF, 37° C., 2 h): 6.1
pH ([3]; FaSSIF, 37° C., 4 h): 6.1
pH ([3]; FaSSIF, 37° C., 24 h): 6.1
pH ([3]; FeSSIF, 37° C., 1 h): 4.9
pH ([3]; FeSSIF, 37° C., 2 h): 4.9
pH ([3]; FeSSIF, 37° C., 4 h): 4.9
pH ([3]; FeSSIF, 37° C., 24 h): 5.0
pH ([3]; H2O, 37° C., 1 h): 8.3
pH ([3]; H2O, 37° C., 2 h): 8.4
pH ([3]; H2O, 37° C., 4 h): 8.3
pH ([3]; H2O, 37° C., 24 h): 4.8
pH ([3]; SGF, 37° C., 1 h): 1.8
pH ([3]; SGF, 37° C., 2 h): 1.8
pH ([3]; SGF, 37° C., 4 h): 1.8
pH ([3]; SGF, 37° C., 24 h): 1.8
solubility at 1 h ([3]; water): 80 µg/mL (≈ 167 µM)
solubility at 2 h ([3]; water): 80 µg/mL (≈ 167 µM)
solubility at 4 h ([3]; water): 90 µg/mL (≈ 188 µM)
solubility at 24 h ([3]; water): 130 µg/mL (≈ 271 µM)
crystal form after the vehicle solubility tests ([3]; water, SGF, FaSSIF, FeSSIF, 37° C., XRPD): unchanged

C[C@H](NC(=O)c1c(C(F)F)nn(C)c1Oc1cccc(C(C)(F)F)c1)c1ccc(C(=O)O)cc1 [free acid crystal form B, (S)-4-(1-(5-(3-(1,1-difluoroethyl)phenoxy)-3-(difluoromethyl)-1-methyl-1H-pyrazole-4-carboxamide)ethyl)benzoic acid]
crystal form after being dried at room temperature [4]: converted into the free acid crystal form A

— patent US20240368088A1, “EP4 ANTAGONIST COMPOUND AS WELL AS SALT, POLYMORPH AND USE THEREOF” (Wuhan Humanwell Innovative Drug Research and Development …, priority 2021, published 2024)
